In patent US9499550B2 (BRISTOL-MYERS SQUIBB COMPANY, priority 2012, dated 2016):
Where two headings read alike, the source gives them in different places.

How the values were obtained:
[1] = test system: HCV genotype 1a (H77 strain) replicon in HUH-7 cells; assay: HCV replicon luciferase reporter assay, genotype 1a; type: cell-based; details: Hepatitis C virus, Huh-7, 72 h, 3 days incubation, read-out: LE_1a (EC50, range)
Method in brief: (§1)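 Replicon inhibition for both genotypes was measured as Renilla luciferase signal (EnduRen, 7.5 μM final, 2 h) after 3-day, 37° C exposure of replicon-bearing HUH-7 cells in 4% FCS DMEM, 0.5% DMSO. The 1b construct carries S1179I; the 1a H77 construct carries P1496L and S2204I. Twenty-point, 3-fold dilutions were fitted four-parametrically for EC50, and CC50 was taken from multiplexed Cell Titer-Blue.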

[2] = test system: HCV genotype 1b (Con1) replicon in HUH-7 cells; assay: HCV replicon luciferase reporter assay, genotype 1b; type: cell-based; details: Hepatitis C virus, Huh-7, 72 h, 3 days incubation, read-out: LE_1b (EC50, range)
Method in brief: as §1

[3] = HCV genotype 1a replicon luciferase
[4] = HCV genotype 1b replicon luciferase
[5] = GETYPE1A, HCV genotype 1a replicon luciferase
[6] = GETYPE1B, HCV genotype 1b replicon luciferase
[7] = HCV genotype 1a replicon luciferase assay, range class
[8] = HCV genotype 1b replicon luciferase assay, range class

| Compound | EC50 [1, 3] | EC50 [2, 4] | other results |
| --- | --- | --- | --- |
| COc1cnc(O[C@@H]2C[C@H]3C(=O)N[C@]4(C(=O)NS(=O)(=O)C5(C)CC5)C[C@H]4/C=C\CC[C@@H](C)C[C@@H](C)[C@H](NC(=O)OC(C)(C)C)C(=O)N3C2)c2ccccc12 [Compound 4057, tert-butyl (2R,6S,7R,9R,13aS,14aR,16aS,Z)-2-(4-methoxyisoquinolin-1-yloxy)-7,9-dimethyl-14a-(1-methylcyclopropylsulfonylcarbamoyl)-5,16-dioxo-1,2,3,5,6,7,8,9,10,11,13a,14,14a,15,16,16a-hexadecahydrocyclopropa[e]pyrrolo[1,2-a][1,4]diazacyclopentadecin-6-ylcarbamate] | < 5.46 nM | < 5.46 nM |  |
| CC(C)Oc1cc2ccccc2c(O[C@@H]2C[C@H]3C(=O)N[C@]4(C(=O)NS(=O)(=O)C5(C)CC5)C[C@H]4/C=C\CC[C@@H](C)C[C@@H](C)[C@H](NC(=O)OC(C)(C)C(C)(F)F)C(=O)N3C2)n1 [Compound 6106, 3,3-difluoro-2-methylbutan-2-yl((2R,6S,7R,9R,13aS,14aR,16aS,Z)-2-((3-isopropoxyisoquinolin-1-yl)oxy)-7,9-dimethyl-14a-(((1-methylcyclopropyl)sulfonyl)carbamoyl)-5,16-dioxo-1,2,3,5,6,7,8,9,10,11,13a,14,14a,15,16,16a-hexadecahydrocyclopropa[e]pyrrolo[1,2-a][1,4]diazacyclopentadecin-6-yl)carbamate] | 1.01 to 5 nM | 0.1 to 0.5 nM |  |
| CC[C@@H]1C[C@@H](C)CC/C=C\[C@@H]2C[C@@]2(C(=O)NS(=O)(=O)C2CC2)NC(=O)[C@@H]2C[C@@H](Oc3nccc4c5c(ccc34)N(C)CCO5)CN2C(=O)[C@H]1NC(=O)OC(C)(C)C [Compound 5307, tert-butyl ((2R,6S,7R,9S,13aS,14aR,16aS,Z)-14a-((cyclopropylsulfonyl)carbamoyl)-7-ethyl-9-methyl-2-((4-methyl-3,4-dihydro-2H-[1,4]oxazino[2,3-f]isoquinolin-7-yl)oxy)-5,16-dioxo-1,2,3,5,6,7,8,9,10,11,13a,14,14a,15,16,16a-hexadecahydrocyclopropa[e]pyrrolo[1,2-a][1,4]diazacyclopentadecin-6-yl)carbamate] | 4.82 to 103 nM | < 5.46 nM |  |
| COc1ccc2nc(O[C@@H]3C[C@H]4C(=O)N[C@]5(C(=O)NS(=O)(=O)C6(C)CC6)C[C@H]5/C=C\CC[C@@H](C)C[C@@H](C)[C@H](NC(=O)OC(C)(C)C(F)(F)F)C(=O)N4C3)c(-c3ccc(OC(C)C)cc3)nc2c1 [Compound 4261] |  |  | EC50 [1, 5]: 5.01 to 35 nM; EC50 [2, 6]: 1.01 to 5 nM |
| [2H]C([2H])([2H])Oc1cnc(O[C@@H]2C[C@H]3C(=O)N[C@]4(C(=O)NS(=O)(=O)C5(C)CC5)C[C@H]4/C=C\CC[C@H](C)C[C@@H](C)[C@H](NC(=O)OC(C)(C)C)C(=O)N3C2)c2ccccc12 [Compound 5100, tert-butyl ((2R,6S,7R,9S,13aS,14aR,16aS,Z)-7,9-dimethyl-14a-(((1-methylcyclopropyl)sulfonyl)carbamoyl)-5,16-dioxo-2-((4-(trideuteromethoxy)isoquinolin-1-yl)oxy)-1,2,3,5,6,7,8,9,10,11,13a,14,14a,15,16,16a-hexadecahydrocyclopropa[e]pyrrolo[1,2-a][1,4]diazacyclopentadecin-6-yl)carbamate] | < 5.46 nM | < 5.46 nM |  |
| CC[C@@H]1C[C@H](C)CC/C=C\[C@@H]2C[C@@]2(C(=O)NS(=O)(=O)C2(C)CC2)NC(=O)[C@@H]2C[C@@H](Oc3nc4c(c5cc(OC)ccc35)CCCO4)CN2C(=O)[C@H]1NC(=O)OC(C)(C)C(C)(F)F [Compound 6090, 3,3-difluoro-2-methylbutan-2-yl((2R,6S,7R,9R,13aS,14aR,16aS,Z)-7-ethyl-2-((9-methoxy-2,3-dihydro-1H-pyrano[2,3-c]isoquinolin-6-yl)oxy)-9-methyl-14a-(((1-methylcyclopropyl)sulfonyl)carbamoyl)-5,16-dioxo-1,2,3,5,6,7,8,9,10,11,13a,14,14a,15,16,16a-hexadecahydrocyclopropa[e]pyrrolo[1,2-a][1,4]diazacyclopentadecin-6-yl)carbamate] | 0.51 to 1 nM | 0.51 to 1 nM |  |
| C[C@@H]1CC/C=C\[C@@H]2C[C@@]2(C(=O)NS(=O)(=O)C2CC2)NC(=O)[C@@H]2C[C@@H](Oc3nccc4ccc(F)cc34)CN2C(=O)[C@@H](NC(=O)OC(C)(C)C)[C@H](C)C1 [Compound 4071, tert-butyl (2R,6S,7R,9R,13aS,14aR,16aS,Z)-14a-(cyclopropylsulfonylcarbamoyl)-2-(7-fluoroisoquinolin-1-yloxy)-7,9-dimethyl-5,16-dioxo-1,2,3,5,6,7,8,9,10,11,13a,14,14a,15,16,16a-hexadecahydrocyclopropa[e]pyrrolo[1,2-a][1,4]diazacyclopentadecin-6-ylcarbamate] | < 5.46 nM | < 5.46 nM |  |
| CCOc1ccc2c(O[C@@H]3C[C@H]4C(=O)N[C@]5(C(=O)NS(=O)(=O)C6(C)CC6)C[C@H]5/C=C\CC[C@@H](C)C[C@@H](CC)[C@H](NC(=O)OC(C)(C)C(C)(F)F)C(=O)N4C3)nccc2c1 [Compound 5371, 3,3-difluoro-2-methylbutan-2-yl((2R,6S,7R,9R,13aS,14aR,16aS,Z)-2-((6-ethoxyisoquinolin-1-yl)oxy)-7-ethyl-9-methyl-14a-(((1-methylcyclopropyl)sulfonyl)carbamoyl)-5,16-dioxo-1,2,3,5,6,7,8,9,10,11,13a,14,14a,15,16,16a-hexadecahydrocyclopropa[e]pyrrolo[1,2-a][1,4]diazacyclopentadecin-6-yl)carbamate] | 1.01 to 5 nM | 0.51 to 1 nM |  |
| CC[C@@H]1C[C@H](C)CC/C=C\[C@@H]2C[C@@]2(C(=O)NS(=O)(=O)C2(C)CC2)NC(=O)[C@@H]2C[C@@H](Oc3cc(OC)nc4cc(OC)ccc34)CN2C(=O)[C@H]1NC(=O)OC(C)(C)C(C)(F)F [Compound 1210] |  |  | EC50 [1, 5]: 1.01 to 5 nM; EC50 [2, 6]: 0.51 to 1 nM |
| CCN(C)c1cc2cc(OC)ccc2c(O[C@@H]2C[C@H]3C(=O)N[C@]4(C(=O)NS(=O)(=O)C5(CF)CC5)C[C@H]4/C=C\CC[C@@H](C)C[C@@H](C)[C@H](NC(=O)OC(C)(C)C(F)(F)F)C(=O)N3C2)n1 [Compound 1137, 1,1,1-trifluoro-2-methylpropan-2-yl((2R,6S,7R,9R,13aS,14aR,16aS,Z)-2-((3-(ethyl(methyl)amino)-6-methoxyisoquinolin-1-yl)oxy)-14a-(((1-(fluoromethyl)cyclopropyl)sulfonyl)carbamoyl)-7,9-dimethyl-5,16-dioxo-1,2,3,5,6,7,8,9,10,11,13a,14,14a,15,16,16a-hexadecahydrocyclopropa[e]pyrrolo[1,2-a][1,4]diazacyclopentadecin-6-yl)carbamate] |  |  | EC50 [1, 7]: 4.82 to 103 nM; EC50 [2, 8]: < 5.46 nM |
| CC(C)Oc1ccc2c(O[C@@H]3C[C@H]4C(=O)N[C@]5(C(=O)NS(=O)(=O)C6(C)CC6)C[C@H]5/C=C\CC[C@H](C)C[C@@H](C)[C@H](NC(=O)OC(C)(C)C(F)(F)F)C(=O)N4C3)nccc2c1 [Compound 5158, 1,1,1-trifluoro-2-methylpropan-2-yl((2R,6S,7R,9S,13aS,14aR,16aS,Z)-2-((6-isopropoxyisoquinolin-1-yl)oxy)-7,9-dimethyl-14a-(((1-methylcyclopropyl)sulfonyl)carbamoyl)-5,16-dioxo-1,2,3,5,6,7,8,9,10,11,13a,14,14a,15,16,16a-hexadecahydrocyclopropa[e]pyrrolo[1,2-a][1,4]diazacyclopentadecin-6-yl)carbamate] | 4.82 to 103 nM | < 5.46 nM |  |
| CC[C@@H]1C[C@@H](C)CC/C=C\[C@@H]2C[C@@]2(C(=O)NS(=O)(=O)C2CC2)NC(=O)[C@@H]2C[C@@H](Oc3nccc4c5c(ccc34)OCCO5)CN2C(=O)[C@H]1NC(=O)OC(C)(C)C(F)(F)F [Compound 5337, 1,1,1-trifluoro-2-methylpropan-2-yl((2R,6S,7R,9S,13aS,14aR,16aS,Z)-14a-((cyclopropylsulfonyl)carbamoyl)-2-((2,3-dihydro-[1,4]dioxino[2,3-f]isoquinolin-7-yl)oxy)-7-ethyl-9-methyl-5,16-dioxo-1,2,3,5,6,7,8,9,10,11,13a,14,14a,15,16,16a-hexadecahydrocyclopropa[e]pyrrolo[1,2-a][1,4]diazacyclopentadecin-6-yl)carbamate] | 4.82 to 103 nM | < 5.46 nM |  |
| COCCn1nc(O[C@@H]2C[C@H]3C(=O)N[C@]4(C(=O)NS(=O)(=O)C5CC5)C[C@H]4/C=C\CC[C@H](C)C[C@@H](C)[C@H](NC(=O)OC(C)(C)C(F)(F)F)C(=O)N3C2)c2ccccc2c1=O [Compound 1021, 1,1,1-trifluoro-2-methylpropan-2-yl((2R,6S,7R,9S,13aS,14aR,16aS,Z)-14a-((cyclopropylsulfonyl)carbamoyl)-2-((3-(2-methoxyethyl)-4-oxo-3,4-dihydrophthalazin-1-yl)oxy)-7,9-dimethyl-5,16-dioxo-1,2,3,5,6,7,8,9,10,11,13a,14,14a,15,16,16a-hexadecahydrocyclopropa[e]pyrrolo[1,2-a][1,4]diazacyclopentadecin-6-yl)carbamate] |  |  | EC50 [1, 7]: > 87.4 nM; EC50 [2, 8]: > 87.4 nM |
